Earlier results on one compound are cited in patent US7767227B2, “Galenical form for oral administration with prolonged release of molsidomine” (Therabel Pharmaceuticals Limited, priority 2000, dated 2010).

Like-named read-outs stand apart in the source and are kept apart here.

Take `CCOC(=O)[N-]c1cn(N2CCOCC2)n[o+]1` [Molsidomine, N-(ethoxycarbonyl)-3-(4-morpholinyl)sydnone imine]: the period of action runs as follows: (4 mg dose) 4 to 5 h; (8 mg dose) 10 to 12 h.
